Experimental data from patent publication US20080194585A1, “Fungicidal Pyrazine Derivatives” (priority 2005, published 2008).

What was measured:
[1] = system: Plasmopara viticola; test: Test D: grape downy mildew, spray after inoculation of grape seedlings; assay type: in vivo; settings: 200 ppm; for pest or weed control at 200 ppm: Plasmopara viticola, 168 h, read-out: Test D disease control rating
From the text: Upon removal, disease ratings were made. […] A dash (-) indicates no test results.

[2] = system: Phytophthora infestans; test: whole plant or invertebrate; assay type: in vivo; settings: for Test F disease control rating: 200 ppm
[3] = system: fusarium graminearium; test: Test I: wheat head scab, preventive spray on wheat seedlings; settings: for pest or weed control at 200 ppm: Fusarium, in Triticum aestivum, topical, 192 h, read-out: Test I disease control rating, 200 ppm; for Test I disease control rating: 200 ppm
Method: (the causal agent of wheat head scab) and incubated in a saturated atmosphere at 20° C. for 72 h, and then moved to a growth chamber at 22° C. for 5 days, after which disease ratings were made.

[4] = system: Puccinia recondita f. sp. tritici; test: Test K: wheat leaf rust, preventive spray on wheat seedlings; settings: for pest or weed control at 200 ppm: Puccinia recondita, in Triticum aestivum, 192 h, read-out: Test K disease control rating; for Test K disease control rating: 200 ppm
[5] = system: Botrytis cinerea; test: Test E: tomato botrytis, preventive spray on tomato seedlings; settings: for pest or weed control at 200 ppm: Botrytis cinerea, in Solanum lycopersicum, topical, 72 h, read-out: Test E disease control rating; for Test E disease control rating: 200 ppm
[6] = system: Septoria nodorum; test: Test H: wheat glum blotch, preventive spray on wheat seedlings; settings: for pest or weed control at 200 ppm: Parastagonospora nodorum, in Triticum aestivum, topical, 168 h, read-out: Test H disease control rating, 200 ppm; for Test H disease control rating: 200 ppm
Method: (the causal agent of wheat glum blotch) and incubated in a saturated atmosphere at 20° C. for 48 h, and then moved to a growth chamber at 22° C. for 5 days, after which disease ratings were made.

[7] = system: Erysiphe graminis f. sp. tritici; test: Test L: wheat powdery mildew, preventive spray on wheat seedlings; settings: for pest or weed control at 200 ppm: Blumeria graminis, in Triticum aestivum, 168 h, read-out: Test L disease control rating, 200 ppm; for Test L disease control rating: 200 ppm
[8] = system: Sclerotinia sclerotiorum; test: Test C: cucumber white mold, preventive spray on cucumber seedlings; settings: for pest or weed control at 200 ppm: Sclerotinia sclerotiorum, in Cucumis sativus, 168 h, read-out: Test C disease control rating, 200 ppm; for Test C disease control rating: 200 ppm
[9] = system: Pythium aphanidermatum; test: Test A: bluegrass pythium blight, preventive spray on bluegrass seedlings; settings: for pest or weed control at 200 ppm: Pythium aphanidermatum, 120 h, read-out: Test A disease control rating; for Test A disease control rating: 200 ppm
[10] = system: Rhizoctonia oryzae; test: Test G: turf brown patch, preventive spray on creeping bent grass seedlings; settings: for pest or weed control at 200 ppm: Waitea circinata, in Agrostis stolonifera, topical, 144 h, read-out: Test G disease control rating, 200 ppm; for Test G disease control rating: 200 ppm
Method: (the causal agent of turf brown patch) and incubated in a saturated atmosphere at 27° C. for 24 h, and then moved to a growth chamber at 27° C. for 5 days, after which disease ratings were made.

[11] = system: Colletotrichum orbiculare; test: Test B: cucumber Colletotrichum anthracnose, preventive spray on cucumber seedlings; settings: for pest or weed control at 200 ppm: Colletotrichum orbiculare, in Cucumis sativus, 144 h, read-out: Test B disease control rating, 200 ppm; for Test B disease control rating: 200 ppm

| Structure (SMILES) | Test D disease control rating [1] [%] | Test F disease control rating [2] [%] | Test I disease control rating [3] [%] | Test K disease control rating [4] [%] | Test E disease control rating [5] [%] | Test H disease control rating [6] [%] | Test L disease control rating [7] [%] | Test C disease control rating [8] [%] | Test A disease control rating [9] [%] | Test G disease control rating [10] [%] | Test B disease control rating [11] [%] | other results |
| --- | --- | --- | --- | --- | --- | --- | --- | --- | --- | --- | --- | --- |
| CC(C)Cn1c(-c2c(F)cccc2F)c(Cl)nc(-n2cccn2)c1=O [Compound 1, 5-Chloro-6-(2,6-difluorophenyl)-1-(2-methylpropyl)-3-(1H-pyrazol-1-yl)-2(1H)-pyrazinone] | – | – | – | – | – | – | – | – | – | – | – | pest or weed control at 200 ppm [1]: 0%; pest or weed control at 200 ppm ([2]; Phytophthora infestans, in Solanum lycopersicum, topical, 144 h, read-out: Test F disease control rating): 0%; pest or weed control at 200 ppm [3]: 0%; pest or weed control at 200 ppm [4]: 99%; pest or weed control at 200 ppm [5]: 100%; pest or weed control at 200 ppm [6]: 99%; pest or weed control at 200 ppm [7]: 93%; pest or weed control at 200 ppm [8]: 0%; pest or weed control at 200 ppm [9]: 0%; pest or weed control at 200 ppm [10]: 78%; pest or weed control at 200 ppm [11]: 0% |
| CC(C)Cn1c(-c2c(F)cccc2F)c(Cl)nc(C#N)c1=O [Compound 5, 6-Chloro-5-(2,6-difluorophenyl)-3,4-dihydro-4-(2-methylpropyl)-3-oxopyrazinecarbonitrile] | – | – | – | – | – | – | – | – | – | – | – | pest or weed control at 200 ppm [1]: 24%; pest or weed control at 200 ppm [3]: 20%; pest or weed control at 200 ppm [4]: 99%; pest or weed control at 200 ppm [5]: 71%; pest or weed control at 200 ppm [6]: 0%; pest or weed control at 200 ppm [7]: 97%; pest or weed control at 200 ppm [8]: 0%; pest or weed control at 200 ppm [9]: 71%; pest or weed control at 200 ppm [10]: 26%; pest or weed control at 200 ppm [11]: 33% |
| Cn1c(-c2ccccc2F)c(Cl)nc(-n2cncn2)c1=O [Compound 15] | 0 | 0 | 0 | 0 | 0 | 0 | 0 | 0 | 0 | 0 | 0 | – |
| CC(C)Cn1c(-c2c(F)cccc2Cl)c(Cl)nc(-n2cccn2)c1=O [compound 9] | 49 | 88 | 80 | 100 | 100 | 100 | 99 | 98 | 62 | 82 | 100 | – |
| Cn1c(-c2ccccc2F)c(Cl)nc(-n2cccn2)c1=O [compound 14] | 0 | 27 | 0 | 0 | 79 | 0 | 21 | 0 | 0 | 0 | 0 | – |
| O=c1c(N2CCC=N2)nc(Cl)c(-c2c(F)cccc2F)n1CC1CC1 [compound 16] | 8 | 84 | 0 | 68 | 99 | 0 | 26 | 0 | 0 | 0 | 0 | – |
| CCC(C)Cn1c(-c2c(F)cc(F)cc2F)c(Cl)nc(-n2cncn2)c1=O (stereo not drawn) [compound 20] | 0 | 30 | 0 | 100 | 100 | 98 | 98 | 0 | 0 | 26 | 0 | – |
| CCC(C)Cn1c(-c2c(F)cccc2F)c(Cl)nc(C#N)c1=O (stereo not drawn) [compound 21] | 15 | 0 | 0 | 96 | 99 | 0 | 96 | 0 | 0 | 31 | 0 | – |
